Here are results for 1 compound from article PMC6096477, “Structure of a Talaromyces pinophilus GH62 arabinofuranosidase in complex with AraDNJ at 1.25 Å resolution” (Acta Crystallographica. Section F, Structural Biology …, 2018).

Molecules are shown by their SMILES.

The target of this test is T1, Talaromyces pinophilus GH62 arabinofuranosidase (Talaromyces pinophilus, UniProt A0A2H5BN17).
T1 construct: single-module GH62 enzyme, secreted from Aspergillus oryzae; about 35 kDa; amino-terminal residue Ser24; chain traced 25-325; 2 subunits in asymmetric unit; no tag mentioned
T1 sequence (A0A2H5BN17 entry or part of it): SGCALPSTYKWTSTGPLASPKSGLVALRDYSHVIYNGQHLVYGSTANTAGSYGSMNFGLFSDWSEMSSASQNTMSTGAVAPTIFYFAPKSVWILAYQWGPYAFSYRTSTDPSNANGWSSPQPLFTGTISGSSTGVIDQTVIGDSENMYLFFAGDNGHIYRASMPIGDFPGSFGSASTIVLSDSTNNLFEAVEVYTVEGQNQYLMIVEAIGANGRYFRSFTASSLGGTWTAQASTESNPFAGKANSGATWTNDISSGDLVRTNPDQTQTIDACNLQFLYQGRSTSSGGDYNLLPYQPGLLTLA
Nature of the test: isothermal titration calorimetry. Format: binding. Background: ITC needs no label: the signal is the heat of the interaction.

As usually defined, the Kd is the constant that tells how readily two partners part at equilibrium. A low value points to higher affinity. In turn, `OC[C@@H]1NC[C@H](O)[C@H]1O` [AraDNJ, 1,4-dideoxy-l,4-imino-L-arabinitol] came in with an equilibrium dissociation constant (Kd) of 24 ± 0.4 µM.
